In the NIST ThermoML archive (doi:10.1016/j.jct.2005.03.006):

Experiment: wn = mass fraction of the nth substance listed
Conditions: Liquid, Buoyancy - hydrostatic balance

c1ccccc1 [benzene] + CO
mass density [kg/m3]
Conditions	5000 kPa	9900 kPa	19700 kPa	29500 kPa	39300 kPa	49100 kPa	58900 kPa
383.15 K, w2 = 0.75	–	–	–	–	768.2	777.8	786.9
383.16 K, w2 = 0.25	764.1	772.6	784.4	796.3	807.6	815.9	824.8
402.15 K, w2 = 0.5	718.4	726.6	742.7	757.7	769	778.9	788.6
406.65 K, w2 = 0.75	693.4	703.3	718.9	733.3	745	755.9	766.2
407.66 K, w2 = 0.25	732	741.5	757.6	771.3	784.6	793.3	803.2
428.15 K, w2 = 0.5	678.8	689.5	710.6	728.7	742.1	753.2	764.7
429.26 K, w2 = 0.25	699.7	710.6	731.1	748.2	762.9	773	783.8
431.35 K, w2 = 0.75	656.6	667.9	689.5	706.7	720	732.5	744.1
453.2 K, w2 = 0.25	659.6	673.3	699.7	720.8	736.9	748.8	760.9
453.65 K, w2 = 0.5	634	649.1	676.5	697.6	714	727	739.3
458.5 K, w2 = 0.75	605.4	624.7	653.6	674.8	690.2	705	718.3
475.26 K, w2 = 0.25	616.4	639.6	669.8	694.3	710.8	725.7	739.4
477.35 K, w2 = 0.75	558.2	590.9	628.5	652.3	669.8	686.2	699.9
496.65 K, w2 = 0.75	483.6	549.1	601.8	628.5	647.8	665.6	680.8
497.15 K, w2 = 0.5	520.7	570	617.6	643.1	661.9	680.8	694.6
497.17 K, w2 = 0.25	566.6	598.9	639	664.5	684.2	701.6	717
